Results from patent US12090147B2, “Combination therapy with 2-(4-chlorophenyl)-N-((2-(2,6-dioxopiperidin-3-yl)-1-oxoisoindolin-5-yl)methyl)-2,2-difluoroacetamide” (Celgene Corporation, priority 2019, dated 2024).

Legend:
Type in all cases: cell-based, human
ML-2 cells = assay: Immunoblot analysis of target proteins
Description: Cells were washed in ice-cold 1×PBS twice before harvest in Cell Extraction Buffer (ThermoFisher Cat No. FNN0011) supplemented with 1× Halt Protease Inhibitor Cocktail (ThermoFisher Cat No. 78429). Whole cell extracts were collected after centrifugation at 14,000 g for 10 minutes, resolved on 4-12% Bis-Tris Novex Precast Gels (ThermoFisher Cat No. WG1403A), transferred onto a nitrocellulose membrane using the Turboblot Turbo Transfer System (Bio-Rad), and probed with the indicated primary antibodies. Bound antibodies were detected with IRDye-680 or -800 conjugated secondary antibodies using a LI-COR scanner.
Antibodies used for immunoblot: mouse anti-human GSPT-1 mAb conjugated with AL647 (clone number GSPT1-164-17G9-G6, Celgene, San Diego, CA), IL-1β (R&D Systems, Cat No. AF-201-NA), cleaved caspase 3 (Cell Signaling, Cat No. 9664S), alpha-tubulin (Cell Signaling, Cat No. 3873S), cleaved Caspase-8 (Cell Signaling, Cat No. 9748S), Caspase-1 (Cell Signaling, Cat No. 3866S), HA tag (Cell Signaling, Cat No. 3724), phosphor-eIF2a (Cell Signaling, Cat No. 9721), total eIF2a (Cell Signaling, Cat No. 9722), ATF4 (Cell Signaling, Cat No. 11815S), CHOP (Abcam, Cat No. 11419), GAPDH (Cell Signaling, Cat No. 5174), rabbit anti-mouse 800 antibody (LI-COR Biosciences), rabbit anti-mouse 680 antibody (LI-COR Biosciences), mouse anti-rabbit 680 antibody (LI-COR Biosciences), mouse anti-rabbit 800 antibody (LI-COR Biosciences)
(§1) The level of intracellular pro IL-1β and released IL-1β in eight AML cell lines and normal PBMC treated with a titration of Compound 1 over a 48 hour period was assessed. (see FIGS. 1A-1C, Table 2). Supernatant IL-1βb level was induced over 5 fold in 6 out of 8 AML cell lines and normal PBMC upon Compound 1 treatment compared to DMSO (FIGS. 1A, 1B, and 1C, Table 2).

[1] = test system: bone marrow mononuclear cells (BMMC) from primary AML patients; assay: Secreted IL-1β in primary bone marrow mononuclear cells ex vivo
Description: For cytokine assays on primary AML and healthy bone marrow cells, cells were seeded at 0.2 million in 150 μL media per well of ultra-low attachment 96-well plate in duplicates. Cell culture media was collected 24 and 48 hours post-treatment with Compound 1 and/or LPS. Cells were pelleted, fixed in 1.6% PFA and froze down for flow cytometry analysis.
Normal PBMCs were purchased from AllCells (Cat No. PB006F). Primary AML BMMC in were purchased from Conversant (SKU ID: BBM1000-E1110036458110215SH) or Fidelis Research (AML55, AML57, AML73, AML74, AML76, AML79, AML80, AML81, AML84, AML95). Bone marrow from health donor was purchased from StemCell Technologies (Cat No. 70001.2).
Normal PBMCs were cultured in RPMI-1640 (ATCC Cat No. 30-2001) containing 20% fetal bovine serum (Corning Cat No. 35-010-CV). […]
IL-1α (Meso Scale Disgnostics, Cat No. K151RBD), IL-1β (Meso Scale Disgnostics, Cat No. K151QPD), IL-1RA (Meso Scale Disgnostics, Cat No. K151WTD), IL-18 (Meso Scale Disgnostics, Cat No. K151VJK), TNFa (Meso Scale Disgnostics, Cat No. K151QWD), VEGF Meso Scale Disgnostics, Cat No. K151RHD) levels were measured by (Meso Scale Disgnostics assay kits following manufacturer's instructions. Measurements were made on a MESO™ SECTOR S 600 plate reader (Meso Scale Disgnostics). […]

MOLM-13 = assay: Cytokine induction, electrochemiluminescence assay of culture supernatant; conditions: MOLM-13
Description: (§2) For cytokine assays on AML cell lines, cells were seeded at 1 million per mL, 3 mL per well of 6-well plates and allowed set overnight. The next day, cells were treated with 3 μL 1000× working stock of compounds of interest.
(§3) Human AML cell lines, HL-60 (CCL-240), KG-1 (CCL-246), ML-2 (ACC-15), MOLM-13 (ACC-554), MV-4-11 (CRL-9591), NOMO-1 (ACC-542), TF-1 (CRL-2003), THP-1 (TIB-202), and U937 (CRL-1593) were obtained from American Type Culture Collection (ATCC; Manassas, VA) or Deutsche Sammlung von Mikroorganismen and Zellkulturen (DSMZ, Germany) cell banks. Acute myeloid leukemia cell lines were maintained in RPMI-1640 (ATCC Cat No. 30-2001) containing 20% fetal bovine serum (FBS) (Corning Cat No. 35-010-CV) and maintained in humidified incubators at 5% carbon dioxide.
(§4) IL-1α (Meso Scale Disgnostics, Cat No. K151RBD), IL-1β (Meso Scale Disgnostics, Cat No. K151QPD), IL-1RA (Meso Scale Disgnostics, Cat No. K151WTD), IL-18 (Meso Scale Disgnostics, Cat No. K151VJK), TNFa (Meso Scale Disgnostics, Cat No. K151QWD), VEGF Meso Scale Disgnostics, Cat No. K151RHD) levels were measured by (Meso Scale Disgnostics assay kits following manufacturer's instructions. Measurements were made on a MESO™ SECTOR S 600 plate reader (Meso Scale Disgnostics).
(§5) Cell proliferation (CTG) and caspase 3/7 activation (IncuCyte) were analyzed using GraphPad Prism. Electrochemiluminescence data was analyzed using MSD Discovery Workbench platform.
as §1

U937 = assay: as above
Description: as §2, §3, §4, §5, §1

ML-2 = assay: as above; conditions: ML-2
Description: as §2, §3, §4, §5, §1

[2] = 24, 48 and 72 hours, doses conferring similar caspase3/7 activation and viability loss

Structure (SMILES): O=C1CCC(N2Cc3cc(CNC(=O)C(F)(F)c4ccc(Cl)cc4)ccc3C2=O)C(=O)N1 (stereo not drawn) [Compound 1, 2-(4-chlorophenyl)-N-((2-(2,6-dioxopiperidin-3-yl)-1-oxoisoindolin-5-yl)methyl)-2,2-difluoroacetamide]
- Intracellular pro-IL-1β (immunoblot) (ML-2 cells; [2]): conferred induction
- Cleaved caspase 3 (immunoblot) (ML-2 cells; 24 hours): concurrent induction of cleaved caspase 3
- GSPT1 level (immunoblot) (ML-2 cells; two high doses of Compound 1 at 24 hours): significant reduction of GSPT1
- IL-1β in cell culture supernatant, FAB M0/M1/M2 AML BMMC ([1]; four M0/M1/M2 samples): not able to induce IL-1β
- IL-1β in cell culture supernatant, FAB M4/M5 AML BMMC ([1]; two out of five M4/M5 samples, 24 and 48 hours post treatment): marked induction of IL-1β
- IL-1β induction (MOLM-13): 0.00
- IL-1β induction (U937): 1.28
- IL-18 induction (U937): 0.41
- IL-1β induction (ML-2): 3.48
- IL-18 induction (ML-2): 0.00
- Intracellular pro- and secreted IL-1β induction, time of onset (ML-2): not observed until 48 hours post-treatment
- Secreted IL-1β in cell culture supernatant (ML-2; [2]): conferred induction
